Reference: patent US9777020B2, “Furo-3-carboxamide derivatives and methods of use” (AbbVie Inc., priority 2014, dated 2017)

Target: TrkA (Homo sapiens (Human), UniProt P04629)
Test: TrkA kinase HTRF enzyme inhibition assay
Assay type: biochemical
Conditions: TrkA pre-incubated with 200 μM ATP
Description: TrkA enzyme was obtained from Invitrogen (as catalog numbers PV3144, PV3616, and PV3617, respectively). Enzyme activity was measured in an HTRF® (homogeneous time resolved fluorescence) assay, which detects enzymatic phosphorylation of a biotinylated synthetic peptide substrate (an LCK peptide analog, biotin-ahx-[…], from Genemed Synthesis). Phosphorylation is assessed by HTRF® in the presence of an anti-phosphotyrosine antibody conjugated to Eu^3+ cryptate (Cisbio) as donor fluorophore, and streptavidin conjugated to allophycocyanin (ProZyme) as acceptor fluorophore. The HTRF® signal was detected at two different wavelengths (620 nm and 665 nm) which were used to calculate the fluorescence ratio.
TrkA enzyme was titrated to a concentration optimized to ensure accurate measurement of the initial reaction rate. To allow the TrkA enzyme to undergo activation and auto-phosphorylation, a 20 minute pre-incubation with ATP was carried out (at twice the final targeted enzyme and ATP concentration) prior to addition of test compound and the peptide substrate.
TrkA in vitro assays were performed by pre-incubating TrkA (2-10 nM) with ATP (200 μM) for 20 minutes at ambient temperature in 50 mM HEPES pH 7.4, 10 mM MgCl2, 2 mM MnCl2, 100 μM Na3VO4, 1 mM dithiothreitol, 0.01% BSA (bovine serum albumin). Then, to the activated Trk enzyme mixture was added the test compound in 2% dimethyl sulfoxide. After 10 minutes, the peptide substrate (125 nM) was added. After 1 hour, enzyme reactions were terminated by addition of equal reaction volumes of detection/stop reagent (containing 0.2 μg/mL anti-phosphotyrosine monoclonal antibody labeled with europium from Cisbio (catalog#PT66-K), and 4 μg/mL PhycoLink® Streptavidin-Allophycocyanin conjugate from ProZyme (catalog#PJ25S) in 60 mM EDTA in 40 mM HEPES pH 7.4, 480 mM KF, 0.01% Tween® 20 and 0.1% BSA bovine serum albumin) Reaction plates were stored at 4° C. overnight before reading the fluorescence ratio signal on a PerkinElmer EnVision™ fluorescence detector. Individual reaction wells were stopped at time points to obtain reaction rates. The test inhibitor compounds were assayed in duplicate, at half-log serial dilutions over a range of concentrations (e.g. starting at 50 μM or 5 μM as the high compound concentration). The percent Trk enzyme inhibition was calculated from the initial rates of the inhibited reactions relative to the uninhibited control. IC50 values were calculated by fitting the inhibition percent to the concentration of inhibitor [I] in the assay in equation 1 below, to solve for the IC50. Inhibition %=100[I]/([I]+[IC50]) equation 1

TrkA, sequence (P04629 33-796): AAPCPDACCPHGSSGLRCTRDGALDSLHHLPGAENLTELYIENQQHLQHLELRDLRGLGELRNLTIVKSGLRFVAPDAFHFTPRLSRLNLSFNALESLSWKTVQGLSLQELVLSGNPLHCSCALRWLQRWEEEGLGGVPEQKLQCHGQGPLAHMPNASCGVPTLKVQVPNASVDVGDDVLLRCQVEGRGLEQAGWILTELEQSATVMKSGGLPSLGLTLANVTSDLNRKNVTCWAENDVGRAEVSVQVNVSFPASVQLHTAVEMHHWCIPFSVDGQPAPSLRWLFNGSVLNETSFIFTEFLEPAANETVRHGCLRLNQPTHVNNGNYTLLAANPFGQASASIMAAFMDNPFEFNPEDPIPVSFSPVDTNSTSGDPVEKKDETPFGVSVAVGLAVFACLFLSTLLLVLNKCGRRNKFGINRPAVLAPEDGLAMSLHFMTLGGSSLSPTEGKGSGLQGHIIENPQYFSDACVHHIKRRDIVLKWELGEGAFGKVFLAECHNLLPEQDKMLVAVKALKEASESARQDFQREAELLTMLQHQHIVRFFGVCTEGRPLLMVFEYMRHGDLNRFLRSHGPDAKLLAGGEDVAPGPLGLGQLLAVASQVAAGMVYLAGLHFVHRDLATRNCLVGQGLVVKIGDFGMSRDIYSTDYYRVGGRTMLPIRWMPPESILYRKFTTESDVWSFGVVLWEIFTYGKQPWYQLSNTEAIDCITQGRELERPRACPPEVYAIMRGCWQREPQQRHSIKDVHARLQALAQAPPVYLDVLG

SMILES	IC50
CN1CCN(CCn2ncc3cc(NC(=O)c4coc5c4C(=O)NCC5)ccc32)CC1 [Example 57, N-{1-[2-(4-methylpiperazin-1-yl)ethyl]-1H-indazol-5-yl}-4-oxo-4,5,6,7-tetrahydrofuro[3,2-c]pyridine-3-carboxamide]	34.6 nM
CCOc1nc(N2CCN(C(C)=O)CC2)ccc1NC(=O)c1coc2c1C(=O)N([C@@H](C)CO)CC2 [Example 101, N-[6-(4-acetylpiperazin-1-yl)-2-ethoxypyridin-3-yl]-5-[(2S)-1-hydroxypropan-2-yl]-4-oxo-4,5,6,7-tetrahydrofuro[3,2-c]pyridine-3-carboxamide]	19.5 nM
CC(=O)Nc1ccc(NC(=O)c2coc3c2C(=O)NCC3)cc1 [Example 32, N-(4-acetamidophenyl)-4-oxo-4,5,6,7-tetrahydrofuro[3,2-c]pyridine-3-carboxamide]	554 nM
COc1cc(N2CCN(C(C)=O)CC2)ccc1NC(=O)c1coc2c1C(=O)C1(CCNCC1)OC2 [Example 170, N-[4-(4-acetylpiperazin-1-yl)-2-methoxyphenyl]-4-oxo-4,7-dihydrospiro[furo[2,3-c]pyran-5,4′-piperidine]-3-carboxamide]	56.5 nM
CN1CCc2occ(C(=O)Nc3ccc(F)cn3)c2C1=O [Example 68, N-(5-fluoropyridin-2-yl)-5-methyl-4-oxo-4,5,6,7-tetrahydrofuro[3,2-c]pyridine-3-carboxamide]	5820 nM
CCOc1nc(C2CCN(C(C)=O)CC2)ccc1NC(=O)c1coc2c1C(=O)NC(C)(C)C2 [Example 184, N-[6-(1-acetylpiperidin-4-yl)-2-ethoxypyridin-3-yl]-6,6-dimethyl-4-oxo-4,5,6,7-tetrahydrofuro[3,2-c]pyridine-3-carboxamide]	3.5 nM
N#Cc1ccc(NC(=O)c2coc3c2C(=O)NCC3)cc1 [Example 39, N-(4-cyanophenyl)-4-oxo-4,5,6,7-tetrahydrofuro[3,2-c]pyridine-3-carboxamide]	430 nM
O=C(Nc1ccc(Cl)cn1)c1coc2c1C(=O)NCC2 [Example 42, N-(5-chloropyridin-2-yl)-4-oxo-4,5,6,7-tetrahydrofuro[3,2-c]pyridine-3-carboxamide]	918 nM
CN1CCc2occ(C(=O)Nc3ccc(Cl)cn3)c2C1=O [Example 70, N-(5-chloropyridin-2-yl)-5-methyl-4-oxo-4,5,6,7-tetrahydrofuro[3,2-c]pyridine-3-carboxamide]	2490 nM
CC(=O)N1CCN(c2ccc(NC(=O)c3coc4c3C(=O)NC(C)(C)C4)c(OC3C[S+]([O-])C3)n2)CC1 (stereo not drawn) [Example 183, N-{6-(4-acetylpiperazin-1-yl)-2-[(1-oxidothietan-3-yl)oxy]pyridin-3-yl}-6,6-dimethyl-4-oxo-4,5,6,7-tetrahydrofuro[3,2-c]pyridine-3-carboxamide]	4.8 nM
COc1cc(N2CCN(C(C)=O)CC2)ccc1NC(=O)c1coc2c1C(=O)C1(COC1)OC2 [Example 172, N-[4-(4-acetylpiperazin-1-yl)-2-methoxyphenyl]-4-oxo-4,7-dihydrospiro[furo[2,3-c]pyran-5,3′-oxetane]-3-carboxamide]	60 nM
CC1(C)CC(=O)c2c(C(=O)Nc3ccc4[nH]c(CO)nc4c3)coc2C1 [Example 154, N-[2-(hydroxymethyl)-1H-benzimidazol-5-yl]-6,6-dimethyl-4-oxo-4,5,6,7-tetrahydro-1-benzofuran-3-carboxamide]	74 nM
CCOc1nc(N2CCN(C(C)=O)CC2)ccc1NC(=O)c1coc2c1C(=O)NC1(C2)CN(C(C)=O)C1 [Example 113, 1-acetyl-N-[6-(4-acetylpiperazin-1-yl)-2-ethoxypyridin-3-yl]-4′-oxo-4′,7′-dihydro-5′H-spiro[azetidine-3,6′-furo[3,2-c]pyridine]-3′-carboxamide]	65.4 nM
CC1(C)CC(=O)c2c(C(=O)Nc3ccc(N4CCNCC4)cn3)coc2C1 [Example 151, 6,6-dimethyl-4-oxo-N-[5-(piperazin-1-yl)pyridin-2-yl]-4,5,6,7-tetrahydro-1-benzofuran-3-carboxamide]	63.4 nM
COc1cc(N2CCNCC2)ccc1NC(=O)c1coc2c1C(=O)NC(C)C2 (stereo not drawn) [Example 124, N-[2-methoxy-4-(piperazin-1-yl)phenyl]-6-methyl-4-oxo-4,5,6,7-tetrahydrofuro[3,2-c]pyridine-3-carboxamide]	73.7 nM
CCOc1nc(CCO)ccc1NC(=O)c1coc2c1C(=O)NC(C)(C)C2 [Example 143, N-[2-ethoxy-6-(2-hydroxyethyl)pyridin-3-yl]-6,6-dimethyl-4-oxo-4,5,6,7-tetrahydrofuro[3,2-c]pyridine-3-carboxamide]	24.6 nM
CCOc1nc(N2CCN(C(C)=O)CC2)ccc1NC(=O)c1coc2c1C(=O)N(CCOCc1ccccc1)CC2 [Example 8, N-[6-(4-acetylpiperazin-1-yl)-2-ethoxypyridin-3-yl]-5-[2-(benzyloxy)ethyl]-4-oxo-4,5,6,7-tetrahydrofuro[3,2-c]pyridine-3-carboxamide]	69.5 nM
CN1CCc2occ(C(=O)Nc3ccc(C(N)=O)cc3)c2C1=O [Example 26, N-(4-carbamoylphenyl)-5-methyl-4-oxo-4,5,6,7-tetrahydrofuro[3,2-c]pyridine-3-carboxamide]	202 nM
Cc1n[nH]c2ccc(NC(=O)c3coc4c3C(=O)N(C)CC4)cc12 [Example 73, 5-methyl-N-(3-methyl-1H-indazol-5-yl)-4-oxo-4,5,6,7-tetrahydrofuro[3,2-c]pyridine-3-carboxamide]	1080 nM
CCOc1nc(N2CCN(C(C)=O)CC2)ccc1NC(=O)c1coc2c1C(=O)N(CCOCCO)C(C)(C)C2 [Example 176, N-[6-(4-acetylpiperazin-1-yl)-2-ethoxypyridin-3-yl]-5-[2-(2-hydroxyethoxyl)ethyl]-6,6-dimethyl-4-oxo-4,5,6,7-tetrahydrofuro[3,2-c]pyridine-3-carboxamide]	2.1 nM
O=C(Nc1ccc2[nH]ncc2c1)c1coc2c1C(=O)NCC2 [Example 14, N-(1H-indazol-5-yl)-4-oxo-4,5,6,7-tetrahydrofuro[3,2-c]pyridine-3-carboxamide]	111 nM
COCCOc1ccc(NC(=O)c2coc3c2C(=O)NC(C)(C)C3)c(OCCOC)n1 [Example 141, N-[2,6-bis(2-methoxyethoxy)pyridin-3-yl]-6,6-dimethyl-4-oxo-4,5,6,7-tetrahydrofuro[3,2-c]pyridine-3-carboxamide]	60.1 nM
COc1ccc(NC(=O)c2coc3c2C(=O)NCC3)c(OC)n1 [Example 35, N-(2,6-dimethoxypyridin-3-yl)-4-oxo-4,5,6,7-tetrahydrofuro[3,2-c]pyridine-3-carboxamide]	117 nM
CN1CCc2occ(C(=O)Nc3cnc4ccccc4c3)c2C1=O [Example 62, 5-methyl-4-oxo-N-(quinolin-3-yl)-4,5,6,7-tetrahydrofuro[3,2-c]pyridine-3-carboxamide]	827 nM
CC(C)Oc1nc(N2C[C@H]3CCN[C@H]3C2)ccc1NC(=O)c1coc2c1C(=O)NC(C)(C)C2 [Example 129, N-{6-[(3 aR,6aR)-hexahydropyrrolo[3,4-b]pyrrol-5(1H)-yl]-2-isopropoxypyridin-3-yl}-6,6-dimethyl-4-oxo-4,5,6,7-tetrahydrofuro[3,2-c]pyridine-3-carboxamide]	10.8 nM
Cn1cc2cc(NC(=O)c3coc4c3C(=O)NCC4)ccc2n1 [Example 1, N-(2-methyl-2H-indazol-5-yl)-4-oxo-4,5,6,7-tetrahydrofuro[3,2-c]pyridine-3-carboxamide]	44.2 nM
CC(=O)N1CCN(c2ccc(NC(=O)c3coc4c3C(=O)NC(C)(C)C4)c(O[C@H]3CCOC3)n2)CC1 [Example 181, N-{6-(4-acetylpiperazin-1-yl)-2-[(3S)-tetrahydrofuran-3-yloxy]pyridin-3-yl}-6,6-dimethyl-4-oxo-4,5,6,7-tetrahydrofuro[3,2-c]pyridine-3-carboxamide]	10.2 nM
CN1CCc2occ(C(=O)Nc3ccc4[nH]cnc4c3)c2C1=O [Example 27, N-(1H-benzimidazol-5-yl)-5-methyl-4-oxo-4,5,6,7-tetrahydrofuro[3,2-c]pyridine-3-carboxamide]	428 nM
Cc1nc2cc(NC(=O)c3coc4c3C(=O)N(C)CC4)ccc2[nH]1 [Example 78, 5-methyl-N-(2-methyl-1H-benzimidazol-5-yl)-4-oxo-4,5,6,7-tetrahydrofuro[3,2-c]pyridine-3-carboxamide]	236 nM
CN1CCc2occ(C(=O)Nc3ccc(N4CCCCC4)cc3)c2C1=O [Example 61, 5-methyl-4-oxo-N-[4-(piperidin-1-yl)phenyl]-4,5,6,7-tetrahydrofuro[3,2-c]pyridine-3-carboxamide]	195 nM
